The text below walks through data of patent publication US20260258035A1, “FIVE-MEMBERED AND SIX-MEMBERED NITROGEN-CONTAINING COMPOUND, AND INTERMEDIATE, PREPARATION METHOD AND USE THEREOF” (HANGZHOU SYNRX THERAPEUTICS BIOMEDICAL TECHNOLOGY CO., LTD., priority 2022, published 2026).

For test [1], the system named is Human breast squamous carcinoma cells HCC1806. Put plainly: Cell function assay (In-Cell Western, PAR/pADPr after MMS). To be noted: read-out: IC50 (nM) in cell function assay. The format is cell-based. The method, then:
2. Cell Function Assay (In-Cell Western)
• 1) Human breast squamous carcinoma cells HCC1806 (ATCC) were seeded to the 384-well plate (Corning, #3764) at 20,000 cells/well, incubated for 24 h in a CO2 (5%) incubator at 37° C. to allow for complete adherence of the cells; • 2) 120 nL compounds or DMSO were added to the 384-well plate by Echo 550 (LABCYTE, #550) (final concentrations of compounds: 30000 nM, 10000 nM, 3000 nM, 1000 nM, 300 nM, 100 nM, 30 nM, 10 nM, 3 nM, 1 nM, 0 nM), and then the cells were incubated for 1 h in a CO2 (5%) incubator at 37° C.; • 3) 40 nL MMS (methyl mesylate, Sigma, #129925)(final concentration: 0.5 mM) was added to the plate by Echo 550, and the cells were treated for 1 h in a CO2 (5%) incubator at 37° C.

Test [2] concerns the target PARG (Homo sapiens, UniProt Q86W56). Put plainly: Biochemical assay (PARG, TFMU-ADPr substrate).
Where [3] appears, read: HCC1806, In-Cell Western, MMS treatment.
Setting [4] is: HCC1806, compound 1 h then 0.5 mM MMS 1 h, PAR/pADPr antibody, In-Cell Western.
Where [5] appears, read: 4 nM PARG, 66.2 uM TFMU-ADPr, 3 min at room temperature.

Like-named read-outs stand apart in the source and are kept apart here. Bounds are passed on as bounds.

Chain of PARG (Q86W56 whole entry): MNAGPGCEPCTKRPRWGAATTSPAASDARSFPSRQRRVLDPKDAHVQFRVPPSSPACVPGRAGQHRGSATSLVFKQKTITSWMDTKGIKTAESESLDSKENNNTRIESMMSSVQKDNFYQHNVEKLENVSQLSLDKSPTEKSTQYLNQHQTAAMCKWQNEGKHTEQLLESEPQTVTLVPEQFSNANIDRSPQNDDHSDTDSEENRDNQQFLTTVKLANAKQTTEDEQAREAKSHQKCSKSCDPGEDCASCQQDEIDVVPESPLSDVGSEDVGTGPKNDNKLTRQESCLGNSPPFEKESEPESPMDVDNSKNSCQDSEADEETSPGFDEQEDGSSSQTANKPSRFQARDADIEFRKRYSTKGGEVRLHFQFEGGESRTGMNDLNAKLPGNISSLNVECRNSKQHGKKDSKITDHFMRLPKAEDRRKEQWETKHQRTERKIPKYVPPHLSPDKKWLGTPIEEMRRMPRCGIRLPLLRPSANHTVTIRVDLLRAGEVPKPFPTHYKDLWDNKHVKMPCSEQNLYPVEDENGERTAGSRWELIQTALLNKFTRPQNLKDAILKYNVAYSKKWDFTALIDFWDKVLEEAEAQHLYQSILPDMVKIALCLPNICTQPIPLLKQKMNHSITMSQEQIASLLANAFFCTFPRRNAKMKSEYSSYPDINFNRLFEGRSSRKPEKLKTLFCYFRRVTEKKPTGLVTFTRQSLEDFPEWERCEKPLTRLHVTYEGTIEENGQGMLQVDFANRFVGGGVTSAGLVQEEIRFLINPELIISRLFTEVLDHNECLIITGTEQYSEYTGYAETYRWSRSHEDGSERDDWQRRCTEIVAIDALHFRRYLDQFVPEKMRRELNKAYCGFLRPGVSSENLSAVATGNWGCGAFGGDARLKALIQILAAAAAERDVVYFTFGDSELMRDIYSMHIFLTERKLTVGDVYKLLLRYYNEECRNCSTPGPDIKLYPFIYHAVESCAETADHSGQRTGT

For `C[C@@H]1CN(c2cc(S(=O)(=O)NC3(CF)CC3)cn3c(-c4nnc(C(F)F)s4)ncc23)CCN1C(=O)C1(C)CC1` [Example 63, (R)-3-(5-(difluoromethyl)-1,3,4-thiadiazol-2-yl)-N-(1-(fluoromethyl)cyclopropyl)-8-(3-methyl-4-(1-methylcyclopropane-1-carbonyl)piperazin-1-yl)imidazo[1,5-a]pyridine-6-sulfonamide], the concentration for half-maximal inhibition (IC50) in test [1] (setting [3]) is 1.36 nM; in test [1] (setting [4]), less than 100 nM; in test [2] (setting [5]), less than 100 nM; in test [2] (PARG, TFMU-ADPr substrate), 2.12 nM.

As for `CC(C)(F)C(=O)N1CCN(c2cc(S(=O)(=O)NC3(C#N)CC3)cn3c(-c4nnc(C(F)F)s4)ncc23)CC1` [Example 64, N-(1-cyanocyclopropyl)-3-(5-(difluoromethyl)-1,3,4-thiadiazol-2-yl)-8-(4-(2-fluoro-2-methylpropanoyl)piperazin-1-yl)imidazo[1,5-a]pyridine-6-sulfonamide], the IC50 in test [1] (setting [3]) is 6.92 nM; in test [1] (setting [4]), less than 100 nM; in test [2] (setting [5]) it was less than 100 nM; in test [2] (PARG, TFMU-ADPr substrate) it was 3.44 nM.

With `N#CC1(NS(=O)(=O)c2cc(N3CCC(CO)CC3)c3cnc(-c4nnc(C(F)F)s4)n3c2)CC1` [Example 66, N-(1-cyanocyclopropyl)-3-(5-(difluoromethyl)-1,3,4-thiadiazol-2-yl)-8-(4-(hydroxymethyl)piperidin-1-yl)imidazo[1,5-a]pyridine-6-sulfonamide], the IC50 in test [1] (setting [3]) was 18.2 nM; in test [1] (setting [4]), less than 100 nM; in test [2] (setting [5]), less than 100 nM; in test [2] (PARG, TFMU-ADPr substrate), 2.89 nM.

Take `N#CC1(NS(=O)(=O)c2cc(N3CCOCC3)c3cnc(-c4nnc(C(F)F)s4)n3c2)CC1` [Example 67, N-(1-cyanocyclopropyl)-3-(5-(difluoromethyl)-1,3,4-thiadiazol-2-yl)-8-morpholinoimidazo[1,5-a]pyridine-6-sulfonamide]: the IC50 was 40.1 nM in test [1] (setting [3]); less than 100 nM in test [1] (setting [4]); less than 100 nM in test [2] (setting [5]); 8.83 nM in test [2] (PARG, TFMU-ADPr substrate).

In the case of `N#CC1(NS(=O)(=O)c2cc(N3CCC(O)CC3)c3cnc(-c4nnc(C(F)F)s4)n3c2)CC1` [Example 68, N-(1-cyanocyclopropyl)-3-(5-(difluoromethyl)-1,3,4-thiadiazol-2-yl)-8-(4-hydroxypiperidin-1-yl)imidazo[1,5-a]pyridine-6-sulfonamide], the IC50 in test [1] (setting [3]) is 34.7 nM; in test [1] (setting [4]), less than 100 nM; in test [2] (setting [5]), less than 100 nM; in test [2] (PARG, TFMU-ADPr substrate) it was 25.1 nM.

Consider `C[C@@H]1CN(c2cc(S(=O)(=O)NC3(C)CC3)cn3c(-c4nnc(C(F)F)s4)ncc23)CCN1C(=O)C1(C)CC1` [Example 71, (R)-3-(5-(difluoromethyl)-1,3,4-thiadiazol-2-yl)-8-(3-methyl-4-(1-methylcyclopropane-1-carbonyl)piperazin-1-yl)-N-(1-methylcyclopropyl)imidazo[1,5-a]pyridine-6-sulfonamide], for which the 50% inhibitory concentration (IC50) in test [1] (setting [3]) is 0.67 nM; in test [1] (setting [4]), less than 100 nM; in test [2] (setting [5]) it was less than 100 nM; in test [2] (PARG, TFMU-ADPr substrate) it was 1.32 nM.

For the compound `CC(C)C(=O)N1CCN(c2cc(S(=O)(=O)NC3(C#N)CC3)cn3c(-c4nnc(C(F)F)s4)ncc23)C[C@H]1C` [Example 74, (R)-N-(1-cyanocyclopropyl)-3-(5-(difluoromethyl)-1,3,4-thiadiazol-2-yl)-8-(4-isobutyryl-3-methylpiperazin-1-yl)imidazo[1,5-a]pyridine-6-sulfonamide], the IC50 in test [1] (setting [3]) is 1.5 nM; in test [1] (setting [4]) it was less than 100 nM; in test [2] (setting [5]), less than 100 nM; in test [2] (PARG, TFMU-ADPr substrate) it was 6.61 nM.

As to `C[C@@H]1CN(c2cc(S(=O)(=O)NC3(C#N)CC3)cn3c(-c4nnc(C(F)F)s4)ncc23)CCN1C(=O)C1(F)CC1` [Example 77, (R)-N-(1-cyanocyclopropyl)-3-(5-(difluoromethyl)-1,3,4-thiadiazol-2-yl)-8-(4-(1-fluorocyclopropane-1-carbonyl)-3-methylpiperazin-1-yl)imidazo[1,5-a]pyridine-6-sulfonamide], the IC50 is 14.8 nM in test [1] (setting [3]); less than 100 nM in test [1] (setting [4]); less than 100 nM in test [2] (setting [5]); 24 nM in test [2] (PARG, TFMU-ADPr substrate).

With `CC(C)C(=O)N1CCN(c2cc(S(=O)(=O)NC3(C#N)CC3)cn3c(-c4nnc(C(F)F)s4)ncc23)C[C@@H]1C` [Example 85, (S)-N-(1-cyanocyclopropyl)-3-(5-(difluoromethyl)-1,3,4-thiadiazol-2-yl)-8-(4-isobutyryl-3-methylpiperazin-1-yl)imidazo[1,5-a]pyridine-6-sulfonamide], the IC50 in test [1] (setting [3]) is 13.7 nM; in test [1] (setting [4]) it was less than 100 nM; in test [2] (setting [5]), less than 100 nM; in test [2] (PARG, TFMU-ADPr substrate) it was 15.2 nM.

For the compound `C[C@H]1CN(c2cc(S(=O)(=O)NC3(C#N)CC3)cn3c(-c4nnc(C(F)F)s4)ncc23)CCN1C(=O)C1(C)CC1` [Example 86, (S)-N-(1-cyanocyclopropyl)-3-(5-(difluoromethyl)-1,3,4-thiadiazol-2-yl)-8-(3-methyl-4-(1-methylcyclopropane-1-carbonyl)piperazin-1-yl)imidazo[1,5-a]pyridine-6-sulfonamide], the IC50 in test [1] (setting [3]) is 11.4 nM; in test [1] (setting [4]), less than 100 nM; in test [2] (setting [5]) it was less than 100 nM; in test [2] (PARG, TFMU-ADPr substrate) it was 16.6 nM.

On to `CC1(C(=O)N2C3CC2CN(c2cc(S(=O)(=O)NC4(C#N)CC4)cn4c(-c5nnc(C(F)F)s5)ncc24)C3)CC1` [Example 87, N-(1-cyanocyclopropyl)-3-(5-(difluoromethyl)-1,3,4-thiadiazol-2-yl)-8-(6-(1-methylcyclopropane-1-carbonyl)-3,6-diazabicyclo[3.1.1]heptan-3-yl)imidazo[1,5-a]pyridine-6-sulfonamide], for which the IC50 in test [1] (setting [3]) is 49.9 nM; in test [1] (setting [4]), less than 100 nM; in test [2] (setting [5]), less than 100 nM; in test [2] (PARG, TFMU-ADPr substrate), 7.24 nM.

Take `C[C@@H]1CN(c2cc(S(=O)(=O)NC3(C)COC3)cn3c(-c4nnc(C(F)F)s4)ncc23)CCN1C(=O)C1(C)CC1` [Example 88, (R)-3-(5-(difluoromethyl)-1,3,4-thiadiazol-2-yl)-8-(3-methyl-4-(1-methylcyclopropane-1-carbonyl)piperazin-1-yl)-N-(3-methyloxetan-3-yl)imidazo[1,5-a]pyridine-6-sulfonamide]: the IC50 in test [1] (setting [3]) is 6.77 nM; in test [1] (setting [4]), less than 100 nM; in test [2] (setting [5]), less than 100 nM; in test [2] (PARG, TFMU-ADPr substrate) it was 8.69 nM.

Turning to `CC(C)[C@@H]1CN(c2cc(S(=O)(=O)NC3(C#N)CC3)cn3c(-c4nnc(C(F)F)s4)ncc23)CCN1C(=O)C1(C)CC1` [Example 96, (R)-N-(1-cyanocyclopropyl)-3-(5-(difluoromethyl)-1,3,4-thiadiazol-2-yl)-8-(3-isopropyl-4-(1-methylcyclopropane-1-carbonyl)piperazin-1-yl)imidazo[1,5-a]pyridine-6-sulfonamide], the half-maximal inhibitory concentration (IC50) is 1.68 nM in test [1] (setting [3]); less than 100 nM in test [1] (setting [4]); less than 100 nM in test [2] (setting [5]); 2.09 nM in test [2] (PARG, TFMU-ADPr substrate).

As for `CC(C)C[C@@H]1CN(c2cc(S(=O)(=O)NC3(C#N)CC3)cn3c(-c4nnc(C(F)F)s4)ncc23)CCN1C(=O)C1(C)CC1` [Example 97, (R)-N-(1-cyanocyclopropyl)-3-(5-(difluoromethyl)-1,3,4-thiadiazol-2-yl)-8-(3-isobutyl-4-(1-methylcyclopropane-1-carbonyl)piperazin-1-yl)imidazo[1,5-a]pyridine-6-sulfonamide], the IC50 in test [1] (setting [3]) is 7.52 nM; in test [1] (setting [4]), less than 100 nM; in test [2] (setting [5]), less than 100 nM; in test [2] (PARG, TFMU-ADPr substrate), 5.01 nM.

Turning to `C#CC1(NS(=O)(=O)c2cc(N3CCN(C(=O)C(C)C)CC3)c3nnc(-c4nnc(C(F)F)s4)n3c2)COC1` [Example 101, 3-(5-(difluoromethyl)-1,3,4-thiadiazol-2-yl)-N-(3-ethynyloxetan-3-yl)-8-(4-isobutyrylpiperazin-1-yl)-[1,2,4]triazolo[4,3-a]pyridine-6-sulfonamide], the half-maximal inhibitory concentration (IC50) was 1540 nM in test [1] (setting [3]); more than 1000 nM in test [1] (setting [4]); less than 100 nM in test [2] (setting [5]); 8.15 nM in test [2] (PARG, TFMU-ADPr substrate).

In the case of `CC(C)C(=O)N1CCN(c2cc(S(=O)(=O)NC3(C)COC3)cn3c(-c4nnc(C(F)F)s4)nnc23)CC1` [Example 103, 3-(5-(difluoromethyl)-1,3,4-thiadiazol-2-yl)-8-(4-isobutyrylpiperazin-1-yl)-N-(3-methyloxetan-3-yl)-[1,2,4]triazolo[4,3-a]pyridine-6-sulfonamide], the IC50 in test [1] (setting [3]) was 33.6 nM; in test [1] (setting [4]), less than 100 nM; in test [2] (setting [5]) it was less than 100 nM; in test [2] (PARG, TFMU-ADPr substrate), 1.5 nM.

For the compound `O=S(=O)(NC1(CF)CC1)c1cc(N2CCC3(CC2)COC3)c2nnc(-c3nnc(C(F)F)s3)n2c1` [Example 104, 3-(5-(difluoromethyl)-1,3,4-thiadiazol-2-yl)-N-(1-(fluoromethyl)cyclopropyl)-8-(2-oxa-7-azaspiro[3.5]nonan-7-yl)-[1,2,4]triazolo[4,3-a]pyridine-6-sulfonamide], the IC50 was 9.76 nM in test [1] (setting [3]); less than 100 nM in test [1] (setting [4]); less than 100 nM in test [2] (setting [5]); 0.65 nM in test [2] (PARG, TFMU-ADPr substrate).
